PubChem BioAssay (NCI)
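Cultured in 96-well plates, cells were exposed to test compound for 48 hours across five concentrations. At the GI50, growth is halved. The concentration for full growth arrest is given as TGI.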

Key:
Experiment in all cases: DTP human tumour cell line panel, 48 h
TK-10 renal = system: TK-10 renal
CAKI-1 renal = system: CAKI-1 renal
SK-OV-3 ovarian = system: SK-OV-3 ovarian
A498 renal = system: A498 renal
HOP-92 NSCLC = system: HOP-92 NSCLC
A549 NSCLC = system: A549 NSCLC
IGROV1 ovarian = system: IGROV1 ovarian
MCF7 breast = system: MCF7 breast
HCC-2998 colon = system: HCC-2998 colon
SW-620 colon = system: SW-620 colon

Structure (SMILES) | TGI (TK-10 renal) [µM] | TGI (CAKI-1 renal) [µM] | TGI (SK-OV-3 ovarian) [µM] | TGI (A498 renal) [µM] | TGI (HOP-92 NSCLC) [µM] | TGI (A549 NSCLC) [µM] | TGI (IGROV1 ovarian) [µM] | TGI (MCF7 breast) [µM] | TGI (HCC-2998 colon) [µM] | TGI (SW-620 colon) [µM] | GI50 (TK-10 renal) [µM] | GI50 (CAKI-1 renal) [µM] | GI50 (SK-OV-3 ovarian) [µM] | GI50 (A498 renal) [µM] | GI50 (HOP-92 NSCLC) [µM] | GI50 (A549 NSCLC) [µM] | GI50 (IGROV1 ovarian) [µM] | GI50 (MCF7 breast) [µM] | GI50 (HCC-2998 colon) [µM] | GI50 (SW-620 colon) [µM]
COc1ccc([C@]23CCC4(OCC(C)(C)CO4)[C@H]4CON(O[C@H](O[C@@H]5CCCCC5C(C)(C)c5ccccc5)C2)[C@@H]43)cc1OC (stereo partly drawn) | > 100 | 39 | > 100 | > 100 | > 100 | > 100 | > 100 | > 100 | > 100 | > 100 |  |  |  |  |  |  |  |  |  | 
CS(=O)(=O)Nc1ccc2ccccc2c1 | > 100 | > 100 | > 100 | > 100 | > 100 | > 100 | > 100 | > 100 | > 100 | > 100 |  |  |  |  |  |  |  |  |  | 
N#CCCN(CCC#N)c1ccc(C(N=Nc2ccccc2)=Nc2ccc(F)cc2)cc1 | > 100 | > 100 | > 100 | > 100 | > 100 | > 100 | > 100 | > 100 | > 100 | > 100 |  |  |  |  |  |  |  |  |  | 
CNC(=S)N1CCN(C(C)=O)C1=S | > 100 | > 100 | > 100 | > 100 | > 100 | > 100 | > 100 | > 100 | > 100 | > 100 |  |  |  |  |  |  |  |  |  | 
CC1=C(C(=O)OCCO[N+](=O)[O-])C(c2ccccc2[N+](=O)[O-])C(C(=O)OC(C)C)=C(C)N1 (stereo not drawn) | 58.4 | 59.7 | 39.8 | 46.2 | 31.4 | 41.9 | 34.9 | 44.9 | 29.5 | 39.9 |  |  |  |  |  |  |  |  |  | 
Cc1nc2c(=O)n(-c3ccccc3)c(=O)n(-c3ccccc3)c2o1 | > 100 | > 100 | > 100 | > 100 | > 100 | > 100 | > 100 | > 100 | > 100 | > 100 |  |  |  |  |  |  |  |  |  | 
CC1=NN2C(=N)/C(=C/c3ccc(F)cc3)C(=O)N=C2S1 | > 100 | > 100 | > 100 | > 100 | > 100 | > 100 | > 100 | > 100 | > 100 | > 100 |  |  |  |  |  |  |  |  |  | 
CC(C)=CCc1c(O)cc2oc(-c3ccc(O)cc3O)cc(=O)c2c1O | 69.7 | > 81.4 | > 100 | > 100 | > 88.6 | > 100 | > 100 | > 65.6 | 35.1 | > 100 |  |  |  |  |  |  |  |  |  | 
CCc1nc2c(c(N(C)C)c1C(=O)OC)CCc1ccccc1-2 | > 100 | > 100 | 51.4 | 75.3 | > 100 | > 100 | > 100 | 48.2 | 67.5 | > 100 |  |  |  |  |  |  |  |  |  | 
Cn1c(=O)cc(NNc2ccc(Cl)c(Cl)c2)[nH]c1=O | 30.6 | 27.3 | > 100 | > 100 | 28.5 | 36 | 23.5 | 21.4 | 16.6 | 21.1 |  |  |  |  |  |  |  |  |  | 
COc1ccc(-c2cc3cc(Cl)cc(Cl)c3oc2=O)cc1OC | > 100 | > 100 | > 100 | > 100 | > 100 | > 100 | > 100 | > 100 | > 100 | > 100 |  |  |  |  |  |  |  |  |  | 
CSc1ccc(/C=C2\N=C(c3ccccc3)N(c3nc4cc(Cl)c(F)cc4s3)C2=O)cc1 | > 100 | > 100 | > 100 | > 100 | > 100 | > 100 | > 100 | > 100 | > 100 | > 100 |  |  |  |  |  |  |  |  |  | 
Clc1ccc(/C(=C/c2ccccc2)Cn2ccnc2)cc1 | > 100 | > 100 | > 100 | 77.7 | 67.2 | > 100 | > 100 | > 100 | > 100 | > 100 |  |  |  |  |  |  |  |  |  | 
C[As+](C)(c1ccc(Br)c([N+](=O)[O-])c1)c1ccc(Br)c([N+](=O)[O-])c1.O=[N+]([O-])O | > 100 | > 100 | > 100 | > 100 | > 100 | > 100 | > 100 | > 100 | > 100 | > 100 |  |  |  |  |  |  |  |  |  | 
OC(CC(O)(C(F)(F)Cl)C(F)(F)Cl)c1ccccc1 (stereo not drawn) | > 10 | > 10 | > 10 | 0.0548 | > 10 | > 10 | 0.0883 | > 10 | > 10 | > 10 |  |  |  |  |  |  |  |  |  | 
O=c1c2c3c(sc2nc2n1N=C(c1ccc(Br)cc1)CS2)CCCC3 | > 100 | > 100 | > 100 | > 100 | > 100 | > 100 | > 100 | > 100 | > 100 | > 100 |  |  |  |  |  |  |  |  |  | 
C[C@H]1[C@H](C)CC[C@]2(C(=O)OC3OC(CO)C(O)C(O)C3O)CC[C@]3(C)C(=CC[C@@H]4[C@@]5(C)C[C@@H](O)[C@@H]6OC(=O)c7cc(O)c(O)c(O)c7-c7c(cc(O)c(O)c7O)C(=O)OC[C@@]6(CO)[C@@H]5CC[C@]43C)[C@H]12 (stereo partly drawn) | > 100 | > 100 | > 100 | > 100 | > 100 | > 100 | > 100 | 36.4 | > 100 | > 67 |  |  |  |  |  |  |  |  |  | 

Structure (SMILES) | TGI (TK-10 renal) [µM] | TGI (CAKI-1 renal) [µM] | TGI (SK-OV-3 ovarian) [µM] | TGI (A498 renal) [µM] | TGI (HOP-92 NSCLC) [µM] | TGI (A549 NSCLC) [µM] | TGI (IGROV1 ovarian) [µM] | TGI (MCF7 breast) [µM] | TGI (HCC-2998 colon) [µM] | TGI (SW-620 colon) [µM] | GI50 (TK-10 renal) [µM] | GI50 (CAKI-1 renal) [µM] | GI50 (SK-OV-3 ovarian) [µM] | GI50 (A498 renal) [µM] | GI50 (HOP-92 NSCLC) [µM] | GI50 (A549 NSCLC) [µM] | GI50 (IGROV1 ovarian) [µM] | GI50 (MCF7 breast) [µM] | GI50 (HCC-2998 colon) [µM] | GI50 (SW-620 colon) [µM]
CC1(C)N=C(N)N=C(N)N1c1cccc(Cl)c1 | > 100 | > 100 | > 100 | > 100 | > 100 | > 100 | > 100 | > 100 | > 100 | > 100 |  |  |  |  |  |  |  |  |  | 
CCN(CC)CCCCNc1c2ccc(Cl)cc2nc2ccc(OC)cc12 | 4.59 | 3.76 | 3.46 | 2.52 | 1.87 | 2.58 | 8.61 | 1.69 | 2.32 | 2.12 | 0.925 | 1.14 | 0.637 | 1.21 | 0.271 | 0.367 | 0.777 | 0.294 | 0.78 | 0.277
CC(=N/NC(=S)N(C)C)/C(=N\NC(=S)N(C)C)c1ccccc1 | 3 | 6.96 | 3.53 | 3.12 | 3.53 | 8.56 | 3.36 | > 25.6 | 2.99 | 3.97 |  |  |  |  |  |  |  |  |  | 
NC(=O)NN=C1Cc2ccccc2C1 | > 100 | > 100 | > 100 | > 100 | > 100 | > 100 | > 100 | > 100 | > 100 | > 100 |  |  |  |  |  |  |  |  |  | 
NC(=O)C1CCN(Cc2c(Cl)c(Cl)c(CN3CCC(C(N)=O)CC3)c(Cl)c2Cl)CC1 | > 100 | > 100 | 46.5 | 90.6 | > 100 | > 100 |  | > 100 | > 100 | > 100 |  |  |  |  |  |  |  |  |  | 
O=c1c2ccc(Cl)cc2oc2c(CNc3ccc(S(=O)(=O)Nc4ncccn4)cc3)cccc12 | > 100 | > 100 | > 100 | > 100 | > 100 | > 100 | > 100 | > 100 | > 100 | > 100 |  |  |  |  |  |  |  |  |  | 
CC(C)=CCC[C@@H](C)C1=C(Nc2ccccc2F)C(O)=C(C)C(=O)C1=O | > 100 | 34.2 | 73.3 | > 43.9 | > 69.9 | > 44.9 | > 39.1 | 81.6 | 38.1 | > 69.1 |  |  |  |  |  |  |  |  |  | 
O=C1c2cc3c(cc2CC12Cc1ccc4c(c1C2=O)CCC4)CCC3 (stereo not drawn) | > 100 | > 100 | > 100 | > 100 | > 100 | > 100 | > 100 | > 100 | > 100 | > 100 |  |  |  |  |  |  |  |  |  | 
CCN(CC)C(=S)N/N=C(/c1ccccc1)c1ccccn1 | 29 | 11 | 38.6 | 2.38 | > 100 | > 39.7 | 6.72 | > 54 | 37 | > 49.4 |  |  |  |  |  |  |  |  |  | 
COc1ccc2c(c1OC)C(=O)N1C2=Cc2c(cc3c(c2OC)OCO3)CC1N(C)C (stereo not drawn) | > 100 | > 100 | > 100 | > 100 | > 100 | > 100 | > 100 | > 100 | > 100 | > 100 |  |  |  |  |  |  |  |  |  | 
CC1=C(C)SC(=C2Sc3c(n(C)c(=O)n(C)c3=O)S2)S1 | 74.7 | > 100 | 33.5 | 79.4 | > 100 | > 100 | > 100 | > 100 | > 100 | > 100 |  |  |  |  |  |  |  |  |  | 
COc1ccc(C2c3cc4c(cc3OC(Nc3ccccc3)C2C)OCO4)cc1 (stereo not drawn) | > 100 | > 100 | > 100 | > 100 | > 100 | > 100 | > 100 | > 100 | > 100 | > 100 |  |  |  |  |  |  |  |  |  | 
CN(C)CCNCCCNc1c2ccccc2nc2cccc([N+](=O)[O-])c12 | 0.176 | 0.331 | 0.26 | 0.0588 | 0.0346 | 0.0999 | 0.173 | < 0.0268 | < 0.0184 | 1.34 |  |  |  |  |  |  |  |  |  | 
Nc1c(N2CCOCC2)c(=O)nc2[nH]/c(=C\c3ccccc3O)c(=O)n12 | > 100 | > 100 | > 100 | > 100 | > 100 | > 100 | > 100 | > 100 | > 100 | > 100 |  |  |  |  |  |  |  |  |  | 
COc1cc2c(cc1OCc1ccccc1)NC(=O)[C@@H]1CCCN1C2=O | > 100 | > 100 | > 100 | > 100 | > 100 | > 100 | > 100 | > 100 | > 100 | > 100 |  |  |  |  |  |  |  |  |  | 
CC(C)(C)/C(O)=C\c1nc2cc(F)c(F)cc2[nH]c1=O | > 100 | > 100 | > 100 | > 100 | > 100 |  | > 100 | > 100 | > 100 | > 100 |  |  |  |  |  |  |  |  |  | 
